From patent publication US6603058B1, “Non-human animal model for obesity and uses thereof” (Oklahoma Medical Research Foundation, priority 1998, dated 2003)

Columns and labels:
Type in all cases: in vivo, mouse
[1] = Coat pigmentation of mice treated with MSH for two weeks
Description: An effect of MSH could also be seen on coat pigmentation. […] Yellow coat pigmentation gradually reappeared after MSH treatment was terminated (data not shown).

[2] = Daily intraperitoneal MSH analog treatment of POMC homozygous mutant and wildtype female mice: body weight change and food intake; settings: for weight loss, share of excess weight: mutant female mice, 1 microgram (~1 nmol) i.p. daily; for weight loss in wildtype mice: wildtype non-obese littermates, peripheral (i.p.) daily treatment
Experimental: To initially test for the effect of peripheral melanocortins on weight change, we selected the stable agonist [Ac-Cys^4, D-Phe^7, Cys^10] αMSH (4-13)(described in Cody et al., 1985, J. Med. Chem. 28, 583-588; incorporated herein by reference in its entirety). Briefly, [Ac-Cys^4,D-Phe^7, Cys^10] α-MSH (4-13) amide was obtained from Peninsula Laboratories, CA. Lyophilized powder was dissolved in water at 1 mg/ml, which was diluted in PBS to 10 μg/mL. During the experiments, mice were maintained on a normal 12h/12h light/dark cycle with food and water ad libitum. Mice were fed standard laboratory rodent diet (#5001).
In order to see whether the α-MSH analog has an effect on food intake, we compared weight change and food intake in these mice for one week (see bars in FIGS. 4A and 4B) under MSH analog treatment and after MSH analog treatment was stopped (FIGS. 4C and 4D). During one week under MSH analog treatment mutant mice lost 0.5 g, while wildtype littermates gained 0.3 g; the food intake during this time was equivalent in both groups (20.7 g in wildtypes, and 22.7 g in mutants).

[3] = Weight change and food intake in wildtype and POMC null mutant mice under standard diet, standard diet plus MSH analog, or high fat diet; settings: for food intake, standard diet v. standard diet & MSH analog treatment / weight change, standard diet v. standard diet & MSH analog treatment: MSH analog i.p. 1 or 2 μg once daily
Experimental: P values were determined by ANOVA. If the major component of weight regulation through the melanocortinergic pathway was the regulation of feeding behavior, the observed changes in body weight in POMC null mutant mice should be paralleled by a similar pattern in food uptake. This, however, was not observed (FIGS. 5B and 5D and Table 1).

[4] = both on standard diet & MSH analog treatment

Substance: [Ac-Cys^4,D-Phe^7, Cys^10] α-MSH (4-13) amide [MSH analog]
- effect on coat pigmentation [1]: lost their yellowish tinge
- weight loss, share of excess weight ([2]; by 2 weeks): 46 % of excess weight
- weight loss, share of excess weight ([2]; within one week): 38 % of excess weight
- body weight gained in one week after MSH analog treatment had been stopped for two weeks ([2]; mutant mice): 1.7 g
- food intake during one week under MSH analog treatment ([2]; mutant mice): 22.7 g
- food intake in one week after MSH analog treatment had been stopped for two weeks ([2]; mutant mice): 35.7 g
- time after stop of MSH injections until mutant mice started to gain weight ([2]; mutant mice): about 10 days
- loss of excess weight after two weeks (summary statement) ([2]; mutant mice treated peripherally): over 40 % of excess weight
- body weight lost during one week under MSH analog treatment ([2]; mutant mice, second week of treatment): 0.5 g
- difference in food intake, mutants over wildtypes, after treatment stopped for two weeks ([2]; one week, p<0.005): 11.5 g
- body weight gained in one week after MSH analog treatment had been stopped for two weeks ([2]; wildtype littermates): 0.3 g
- body weight gained during one week under MSH analog treatment ([2]; wildtype littermates, second week of treatment): 0.3 g
- food intake during one week under MSH analog treatment ([2]; wildtype mice): 20.7 g
- food intake in one week after MSH analog treatment had been stopped for two weeks ([2]; wildtype mice): 24.2 g
- weight loss in wildtype mice ([2]; listed as MSH-agonist): no significant weight loss
- weight loss in wildtype mice ([2]; listed as stable α-MSH agonist): did not lose significant weight
- food intake, wildtype v. mutant [3, 4]: ↑
- weight change, wildtype v. mutant [3, 4]: ↓
- food intake, standard diet v. standard diet & MSH analog treatment ([3]; mutant mice): decreases food intake and ↓
- weight change, standard diet v. standard diet & MSH analog treatment ([3]; mutant mice): lose excess weight and ↓
- food intake, standard diet v. standard diet & MSH analog treatment ([3]; wildtype mice): decreases food intake and ↓
- weight change, standard diet v. standard diet & MSH analog treatment ([3]; wildtype mice): ←→
